Results published in PubChem BioAssay (NCI).
In brackets after ≈: the same amount, converted by molar mass.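 Step 1: Grow cells in 96-well plates. Step 2: Expose to compound for 48 hours at 5 concentrations. Step 3: Interpolate endpoints linearly; if unreached, use highest concentration. GI50: concentration for 50% inhibition of growth. TGI: concentration producing complete growth inhibition.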

Assays:
Assay in all cases: DTP human tumour cell line panel, 48 h
A498 renal = tested on: A498 renal
EKVX NSCLC = tested on: EKVX NSCLC
HCT-116 colon = tested on: HCT-116 colon
HL-60(TB) leukemia = tested on: HL-60(TB) leukemia
HOP-62 NSCLC = tested on: HOP-62 NSCLC
HOP-92 NSCLC = tested on: HOP-92 NSCLC
HS 578T breast = tested on: HS 578T breast
IGROV1 ovarian = tested on: IGROV1 ovarian
MDA-MB-231 breast = tested on: MDA-MB-231 breast
NCI-H226 lung = tested on: NCI-H226 lung
RPMI-8226 leukemia = tested on: RPMI-8226 leukemia
RXF 393 renal = tested on: RXF 393 renal
SN12C renal = tested on: SN12C renal
SNB-75 CNS = tested on: SNB-75 CNS
SR leukemia = tested on: SR leukemia
T-47D breast = tested on: T-47D breast
UO-31 renal = tested on: UO-31 renal
786-0 renal = tested on: 786-0 renal
A549 NSCLC = tested on: A549 NSCLC
ACHN renal = tested on: ACHN renal
BT-549 breast = tested on: BT-549 breast
CAKI-1 renal = tested on: CAKI-1 renal
CCRF-CEM leukemia = tested on: CCRF-CEM leukemia
COLO 205 colon = tested on: COLO 205 colon
HCC-2998 colon = tested on: HCC-2998 colon
HCT-15 colon = tested on: HCT-15 colon
HT29 colon = tested on: HT29 colon
K-562 leukemia = tested on: K-562 leukemia
KM12 colon = tested on: KM12 colon
LOX IMVI melanoma = tested on: LOX IMVI melanoma
M14 melanoma = tested on: M14 melanoma
MCF7 breast = tested on: MCF7 breast
MDA-MB-435 = tested on: MDA-MB-435
MOLT-4 leukemia = tested on: MOLT-4 leukemia
NCI-H23 lung = tested on: NCI-H23 lung
NCI-H460 lung = tested on: NCI-H460 lung
NCI-H522 lung = tested on: NCI-H522 lung
NCI/ADR-RES ovarian = tested on: NCI/ADR-RES ovarian
OVCAR-3 ovarian = tested on: OVCAR-3 ovarian
OVCAR-4 ovarian = tested on: OVCAR-4 ovarian
OVCAR-5 ovarian = tested on: OVCAR-5 ovarian
OVCAR-8 ovarian = tested on: OVCAR-8 ovarian
PC-3 prostate = tested on: PC-3 prostate
SF-268 CNS = tested on: SF-268 CNS
SF-295 CNS = tested on: SF-295 CNS
SF-539 CNS = tested on: SF-539 CNS
SK-MEL-2 melanoma = tested on: SK-MEL-2 melanoma
SK-MEL-28 melanoma = tested on: SK-MEL-28 melanoma
SK-MEL-5 melanoma = tested on: SK-MEL-5 melanoma
SNB-19 CNS = tested on: SNB-19 CNS
SW-620 colon = tested on: SW-620 colon
TK-10 renal = tested on: TK-10 renal
U251 CNS = tested on: U251 CNS
UACC-257 melanoma = tested on: UACC-257 melanoma
UACC-62 melanoma = tested on: UACC-62 melanoma

`Nc1nccc2c([N+](=O)[O-])cccc12` showed a GI50 (A498 renal) of 31.7 µg/mL, a GI50 (EKVX NSCLC) of 5.93 µg/mL (≈ 31.3 µM) and a TGI (EKVX NSCLC) of 48.8 µg/mL (≈ 258 µM). It also gave a GI50 (HCT-116 colon) of 84.3 µg/mL, a GI50 (HL-60(TB) leukemia) of 78.3 µg/mL (≈ 414 µM) and a GI50 (HOP-62 NSCLC) of 61.5 µg/mL. The GI50 (HOP-92 NSCLC) was 21.4 µg/mL, the GI50 (HS 578T breast) was 52 µg/mL (≈ 275 µM) and the GI50 (IGROV1 ovarian) was 86.3 µg/mL. It also gave a GI50 (MDA-MB-231 breast) of 92 µg/mL, a GI50 (NCI-H226 lung) of 87.4 µg/mL and a GI50 (RPMI-8226 leukemia) of 40.4 µg/mL. It also gave a GI50 (RXF 393 renal) of 87.4 µg/mL, a GI50 (SN12C renal) of 92.9 µg/mL and a GI50 (SNB-75 CNS) of 55.3 µg/mL (≈ 292 µM). It also gave a GI50 (SR leukemia) of 25.7 µg/mL, a GI50 (T-47D breast) of 77.1 µg/mL and a GI50 (UO-31 renal) of 53.4 µg/mL.

Compound `N#Cc1cc(S(=O)(=O)Nc2nc3cc(Cl)ccc3o2)c(SCc2ccccc2)cc1Cl` has a GI50 (786-0 renal) of 15.7 µM, a TGI (786-0 renal) of 29.1 µM and a GI50 (A498 renal) of 11.5 µM. It also gave a TGI (A498 renal) of 23.6 µM, a GI50 (A549 NSCLC) of 14.2 µM and a TGI (A549 NSCLC) of 27.2 µM. For the same compound, the GI50 (ACHN renal) was 13.9 µM, the TGI (ACHN renal) was 26.8 µM and the GI50 (BT-549 breast) was 13.4 µM. For the same compound, the TGI (BT-549 breast) was 26.2 µM, the GI50 (CAKI-1 renal) was 18.5 µM and the TGI (CAKI-1 renal) was 35.1 µM. The GI50 (CCRF-CEM leukemia) was 14.1 µM, the TGI (CCRF-CEM leukemia) was 27.1 µM and the GI50 (COLO 205 colon) was 13 µM. For the same compound, the TGI (COLO 205 colon) was 25.7 µM, the GI50 (HCC-2998 colon) was 12.6 µM and the TGI (HCC-2998 colon) was 25.1 µM. It also gave a GI50 (HCT-116 colon) of 15.4 µM, a TGI (HCT-116 colon) of 28.7 µM and a GI50 (HCT-15 colon) of 16.2 µM. It also gave a TGI (HCT-15 colon) of 29.7 µM, a GI50 (HOP-62 NSCLC) of 12.3 µM and a TGI (HOP-62 NSCLC) of 24.8 µM. For the same compound, the GI50 (HOP-92 NSCLC) was 10.5 µM, the TGI (HOP-92 NSCLC) was 23.5 µM and the GI50 (HT29 colon) was 17.3 µM. It also gave a TGI (HT29 colon) of 31 µM, a GI50 (IGROV1 ovarian) of 15 µM and a TGI (IGROV1 ovarian) of 28.3 µM. The GI50 (K-562 leukemia) was 14.3 µM, the TGI (K-562 leukemia) was 27.4 µM and the GI50 (KM12 colon) was 14.9 µM. It also gave a TGI (KM12 colon) of 28.1 µM, a GI50 (LOX IMVI melanoma) of 13.5 µM and a TGI (LOX IMVI melanoma) of 26.3 µM. The GI50 (M14 melanoma) was 12.6 µM, the TGI (M14 melanoma) was 25.1 µM and the GI50 (MCF7 breast) was 17.3 µM. The TGI (MCF7 breast) was 33.3 µM, the GI50 (MDA-MB-231 breast) was 10.7 µM and the TGI (MDA-MB-231 breast) was 22.5 µM. It also gave a GI50 (MDA-MB-435) of 16.2 µM, a TGI (MDA-MB-435) of 29.7 µM and a GI50 (MOLT-4 leukemia) of 18.6 µM. The TGI (MOLT-4 leukemia) was 39 µM, the GI50 (NCI-H226 lung) was 17.8 µM and the TGI (NCI-H226 lung) was 43.4 µM. It also gave a GI50 (NCI-H23 lung) of 15.6 µM, a TGI (NCI-H23 lung) of 28.9 µM and a GI50 (NCI-H460 lung) of 15.3 µM. The TGI (NCI-H460 lung) was 28.6 µM, the GI50 (NCI-H522 lung) was 11.6 µM and the TGI (NCI-H522 lung) was 25 µM. For the same compound, the GI50 (NCI/ADR-RES ovarian) was 13.8 µM, the TGI (NCI/ADR-RES ovarian) was 26.7 µM and the GI50 (OVCAR-3 ovarian) was 13.5 µM. The TGI (OVCAR-3 ovarian) was 26.4 µM, the GI50 (OVCAR-4 ovarian) was 15.9 µM and the TGI (OVCAR-4 ovarian) was 35.1 µM. For the same compound, the GI50 (OVCAR-5 ovarian) was 13 µM, the TGI (OVCAR-5 ovarian) was 25.7 µM and the GI50 (OVCAR-8 ovarian) was 14.2 µM. For the same compound, the TGI (OVCAR-8 ovarian) was 27.3 µM, the GI50 (PC-3 prostate) was 15.1 µM and the TGI (PC-3 prostate) was 28.3 µM. The GI50 (RPMI-8226 leukemia) was 16.3 µM, the TGI (RPMI-8226 leukemia) was 43 µM and the GI50 (RXF 393 renal) was 12.5 µM. For the same compound, the TGI (RXF 393 renal) was 25 µM, the GI50 (SF-268 CNS) was 14.7 µM and the TGI (SF-268 CNS) was 32.2 µM. It also gave a GI50 (SF-295 CNS) of 14.5 µM, a TGI (SF-295 CNS) of 28 µM and a GI50 (SF-539 CNS) of 13.5 µM. For the same compound, the TGI (SF-539 CNS) was 26.4 µM, the GI50 (SK-MEL-2 melanoma) was 12.4 µM and the TGI (SK-MEL-2 melanoma) was 24.8 µM. The GI50 (SK-MEL-28 melanoma) was 12.8 µM, the TGI (SK-MEL-28 melanoma) was 25.4 µM and the GI50 (SK-MEL-5 melanoma) was 15.1 µM. It also gave a TGI (SK-MEL-5 melanoma) of 28.3 µM, a GI50 (SN12C renal) of 15.4 µM and a TGI (SN12C renal) of 29.1 µM. It also gave a GI50 (SNB-19 CNS) of 13.6 µM, a TGI (SNB-19 CNS) of 26.5 µM and a GI50 (SR leukemia) of 15.2 µM. For the same compound, the TGI (SR leukemia) was 28.5 µM, the GI50 (SW-620 colon) was 11.7 µM and the TGI (SW-620 colon) was 23.9 µM. For the same compound, the GI50 (T-47D breast) was 15.9 µM, the TGI (T-47D breast) was 30.6 µM and the GI50 (TK-10 renal) was 14.8 µM. It also gave a TGI (TK-10 renal) of 28 µM, a GI50 (U251 CNS) of 13.4 µM and a TGI (U251 CNS) of 26.2 µM. The GI50 (UACC-257 melanoma) was 13 µM, the TGI (UACC-257 melanoma) was 25.7 µM and the GI50 (UACC-62 melanoma) was 13.2 µM. For the same compound, the TGI (UACC-62 melanoma) was 25.9 µM, the GI50 (UO-31 renal) was 12.3 µM and the TGI (UO-31 renal) was 24.7 µM.
